≈ marks a conversion by molar mass, not a printed value.
Columns and labels:
[1] = tested on: RPMI8226 (multiple myeloma); assay: MTT growth inhibition of multiple myeloma cells, 72 h; assay type: cell-based, human; conditions: Homo sapiens, RPMI 8226, 72 h; for IC50: read-out: IC50; for IC90: read-out: IC90
Procedure: Myeloma cell lines: RPMI8226 (multiple myeloma), purchased from Fuxiang Bio-tech Co. Ltd., Shanghai, China.
(§1) The standard sample of tanshinone I (TA) and the 2-aminated methylene or 2-esterified methylene tanshinone I derivatives of the present invention are sufficiently dissolved with dimethylsulfoxide to produce a stock solution of 10 mg/mL, which is refrigerated at 4° C. and stored in dark, and is diluted with a cell culture medium to the desired concentration prior to experimentation.
(§2) Obtaining 6000 well-growing myeloma cells as above and inoculating them into wells of a 96-well cell culture plate. The culture medium is the 1640 cell culture medium containing 10% fetal bovine serum. After adding the 2-aminated methylene or 2-esterified methylene tanshinone I derivatives of different concentrations and mixing uniformly, placing the plate in a carbon dioxide cell incubator (5% CO2) at 37° C. and incubated for 72 hours. Then the viable cell concentration is determined by MTT method.

[2] = tested on: SK-OV-3 (ovarian cancer cell); assay: MTT growth inhibition of human solid tumor cells, 72 h; assay type: cell-based; conditions: Homo sapiens, SK-OV-3, 72 h; for IC50: read-out: IC50; for IC90: read-out: IC90
Procedure: (§3) Hep-2 (laryngeal carcinoma), A549 (human lung cancer), CaES-17 (esophageal cancer cell), PC-3 (prostate cancer), CNE (nasopharyngeal carcinoma cell), and SK-OV-3 (ovarian cancer cell), all of which are purchased from China Center For Type Culture Collection; RKO (human colon adenocarcinoma cell), MGC 803 (human gastric cancer cell), MG63 (osteosarcoma) and U87 MG (malignant glioma cell), all of which are purchased from Fuxiang Bio-tech Co. Ltd., Shanghai, China; PANC-1 (pancreatic cancer), Hep G2 (human liver cancer cell), Becap37 (human breast cancer cell) and Hela (human cervical cancer cell), all of which are donated by Cancer Research Institute of Zhejiang University, China.
as §1
(§4) Obtaining 4000 well-growing human solid tumor cells and inoculating them into wells of a 96-well cell culture plate. The culture medium is DMEM High Glucose cell culture medium containing 10% fetal bovine serum. The plate is placed in a carbon dioxide cell incubator (5% CO2) at 37° C. and incubated for 24 hours. After adding the 2-aminated methylene or 2-esterified methylene tanshinone I derivatives of different concentrations and mixing uniformly, the plate is placed in a carbon dioxide cell incubator (5% CO2) at 37° C. and incubated for 72 hours. Then the viable cell concentration is determined by the MTT method.

[3] = tested on: U87 MG (malignant glioma cell); assay: as above; assay type: cell-based; conditions: Homo sapiens, U-87 MG, U87-MG, 72 h; for IC50: read-out: IC50; for IC90: read-out: IC90
Procedure: as §3, §1, §4

[4] = tested on: PANC-1 (pancreatic cancer); assay: as above; assay type: cell-based; conditions: Homo sapiens, PANC-1, 72 h; for IC50: read-out: IC50; for IC90: read-out: IC90
Procedure: as §3, §1, §4

A549 (human lung cancer) = assay: as above; assay type: cell-based; conditions: Homo sapiens, A549, 72 h; for IC50: read-out: IC50; for IC90: read-out: IC90
Procedure: as §3, §1, §4

[5] = tested on: Hela (human cervical cancer cell); assay: as above; assay type: cell-based; conditions: Homo sapiens, HeLa, 72 h; for IC50: read-out: IC50; for IC90: read-out: IC90
Procedure: as §3, §1, §4

[6] = tested on: Hep-2 (laryngeal carcinoma); assay: as above; assay type: cell-based; conditions: Homo sapiens, HEp-2, 72 h; for IC50: read-out: IC50; for IC90: read-out: IC90
Procedure: as §3, §1, §4

PC-3 (prostate cancer) = assay: as above; assay type: cell-based; conditions: Homo sapiens, PC-3, 72 h; for IC50: read-out: IC50; for IC90: read-out: IC90
Procedure: as §3, §1, §4

MG63 (osteosarcoma) = assay: as above; assay type: cell-based; conditions: Homo sapiens, MG-63, 72 h; for IC50: read-out: IC50; for IC90: read-out: IC90
Procedure: as §3, §1, §4

[7] = tested on: RKO (human colon adenocarcinoma cell); assay: as above; assay type: cell-based; conditions: Homo sapiens; for IC50: read-out: IC50; for IC90: read-out: IC90
Procedure: as §3, §1, §4

[8] = tested on: CNE (nasopharyngeal carcinoma cell); assay: as above; assay type: cell-based; conditions: Homo sapiens; for IC50: read-out: IC50; for IC90: read-out: IC90
Procedure: as §3, §1, §4

[9] = tested on: MGC 803 (human gastric cancer cell); assay: as above; assay type: cell-based; conditions: Homo sapiens, MGC-803, 72 h; for IC50: read-out: IC50; for IC90: read-out: IC90
Procedure: as §3, §1, §4

[10] = tested on: CaES-17 (esophageal cancer cell); assay: as above; assay type: cell-based; conditions: Homo sapiens, CaEs17, CaEs-17, 72 h; for IC50: read-out: IC50; for IC90: read-out: IC90
Procedure: as §3, §1, §4

[11] = tested on: Hep G2 (human liver cancer cell); assay: as above; assay type: cell-based; conditions: Homo sapiens, HepG2, Hep G2, 72 h; for IC50: read-out: IC50; for IC90: read-out: IC90
Procedure: as §3, §1, §4

[12] = tested on: Becap37 (human breast cancer cell); assay: as above; assay type: cell-based; conditions: Homo sapiens, Becap-37, 72 h; for IC50: read-out: IC50; for IC90: read-out: IC90
Procedure: as §3, §1, §4

[13] = tested on: Kasumi-1 (acute myeloid leukemia M2 type, AML-M2); assay: MTT growth inhibition of leukemia cells, 72 h; assay type: cell-based, human; conditions: Homo sapiens, Kasumi-1, 72 h; for IC50: read-out: IC50; for IC90: read-out: IC90
Text: (§5) Leukemia cell lines: leukemia cell lines: K562/adr (drug-resistant, chronic myeloid leukemia, CML), NB4 (acute promyelocytic leukemia, AML), Kasumi-1 (acute myeloid leukemia M2 type, AML-M2), and Jurkat (acute lymphoblastic leukemia, ALL), all of which are donated by Cancer Research Institute of Zhejiang University, China; and H9 (acute lymphoblastic leukemia, ALL), which is purchased from China Center for Type Culture Collection (CCTCC).
as §1
as §2, with “leukemia” for “myeloma”, “cells” for “cells as above”, “RPMI-1640” for “1640”, “adding on the second day” for “adding”

[14] = tested on: H9 (acute lymphoblastic leukemia, ALL); assay: MTT growth inhibition of leukemia cells, 72 h; assay type: cell-based, human; conditions: Homo sapiens, H9, 72 h; for IC50: read-out: IC50; for IC90: read-out: IC90
Text: as §5, §1
as §2, with “leukemia” for “myeloma”, “cells” for “cells as above”, “RPMI-1640” for “1640”, “adding on the second day” for “adding”

[15] = tested on: Jurkat (acute lymphoblastic leukemia, ALL); assay: MTT growth inhibition of leukemia cells, 72 h; assay type: cell-based, human; conditions: Homo sapiens, 72 h; for IC50: read-out: IC50; for IC90: read-out: IC90
Text: as §5, §1
as §2, with “leukemia” for “myeloma”, “cells” for “cells as above”, “RPMI-1640” for “1640”, “adding on the second day” for “adding”

[16] = tested on: NB4 (acute promyelocytic leukemia, AML); assay: MTT growth inhibition of leukemia cells, 72 h; assay type: cell-based, human; conditions: Homo sapiens, NB4, 72 h; for IC50: read-out: IC50; for IC90: read-out: IC90
Text: as §5, §1
as §2, with “leukemia” for “myeloma”, “cells” for “cells as above”, “RPMI-1640” for “1640”, “adding on the second day” for “adding”

[17] = tested on: K562/adr (drug-resistant, chronic myeloid leukemia, CML); assay: MTT growth inhibition of leukemia cells, 72 h; assay type: cell-based, human; conditions: Homo sapiens, K562/Adr; for IC50: read-out: IC50; for IC90: read-out: IC90
Text: as §5, §1
as §2, with “leukemia” for “myeloma”, “cells” for “cells as above”, “RPMI-1640” for “1640”, “adding on the second day” for “adding”

IC50 [1]	IC90 [1]	IC50 [2]	IC90 [2]	IC50 [3]	IC90 [3]	IC50 [4]	IC90 [4]	IC50 (A549 (human lung cancer))	IC90 (A549 (human lung cancer))	IC50 [5]	IC90 [5]	IC50 [6]	IC90 [6]	IC50 (PC-3 (prostate cancer))	IC90 (PC-3 (prostate cancer))	IC50 (MG63 (osteosarcoma))	IC90 (MG63 (osteosarcoma))	IC50 [7]	IC90 [7]	Structure (SMILES)	other results
0.12 µg/mL (≈ 0.231 µM)	0.87 µg/mL (≈ 1.67 µM)	5.91 µg/mL (≈ 11.4 µM)	10.9 µg/mL (≈ 21 µM)	1.46 µg/mL (≈ 2.8 µM)	3.65 µg/mL (≈ 7.01 µM)	0.75 µg/mL (≈ 1.44 µM)	8.96 µg/mL (≈ 17.2 µM)	1.07 µg/mL (≈ 2.06 µM)	3.7 µg/mL (≈ 7.11 µM)	0.89 µg/mL (≈ 1.71 µM)	1.84 µg/mL (≈ 3.53 µM)	1.59 µg/mL (≈ 3.05 µM)	3.77 µg/mL (≈ 7.24 µM)	1.68 µg/mL (≈ 3.23 µM)	9.92 µg/mL (≈ 19.1 µM)	1.08 µg/mL (≈ 2.07 µM)	2.56 µg/mL (≈ 4.92 µM)	0.25 µg/mL (≈ 0.48 µM)	2.38 µg/mL (≈ 4.57 µM)	Cc1c(CN(C)CCOC(=O)CNC(=O)OC(C)(C)C)oc2c1C(=O)C(=O)c1c-2ccc2c(C)cccc12 [BS-TA-72]	IC50 [8]: 2.02 µg/mL (≈ 3.88 µM); IC90 [8]: 3.61 µg/mL (≈ 6.93 µM); IC50 [9]: 1.5 µg/mL (≈ 2.88 µM); IC90 [9]: 9.94 µg/mL (≈ 19.1 µM); IC50 [10]: 1.84 µg/mL (≈ 3.53 µM); IC90 [10]: 3.98 µg/mL (≈ 7.65 µM); IC50 [11]: 0.71 µg/mL (≈ 1.36 µM); IC90 [11]: 3.85 µg/mL (≈ 7.4 µM); IC50 [12]: 1.02 µg/mL (≈ 1.96 µM); IC90 [12]: 1.94 µg/mL (≈ 3.73 µM); IC50 [13]: 0.28 µg/mL (≈ 0.538 µM); IC90 [13]: 0.47 µg/mL (≈ 0.903 µM); IC50 [14]: 0.45 µg/mL (≈ 0.864 µM); IC90 [14]: 1.6 µg/mL (≈ 3.07 µM); IC50 [15]: 0.31 µg/mL (≈ 0.595 µM); IC90 [15]: 0.99 µg/mL (≈ 1.9 µM); IC50 [16]: 0.35 µg/mL (≈ 0.672 µM); IC90 [16]: 0.71 µg/mL (≈ 1.36 µM); IC50 [17]: 1.5 µg/mL (≈ 2.88 µM); IC90 [17]: 2 µg/mL (≈ 3.84 µM)
0.38 µg/mL (≈ 0.82 µM)	1.55 µg/mL (≈ 3.34 µM)	3.54 µg/mL (≈ 7.64 µM)	7.27 µg/mL (≈ 15.7 µM)	1.19 µg/mL (≈ 2.57 µM)	3.44 µg/mL (≈ 7.42 µM)	1.07 µg/mL (≈ 2.31 µM)	5 µg/mL (≈ 10.8 µM)	1.72 µg/mL (≈ 3.71 µM)	4.79 µg/mL (≈ 10.3 µM)	1 µg/mL (≈ 2.16 µM)	3.81 µg/mL (≈ 8.22 µM)	0.81 µg/mL (≈ 1.75 µM)	3.21 µg/mL (≈ 6.93 µM)	1.73 µg/mL (≈ 3.73 µM)	7.04 µg/mL (≈ 15.2 µM)	1.01 µg/mL (≈ 2.18 µM)	3.71 µg/mL (≈ 8 µM)	0.2 µg/mL (≈ 0.432 µM)	0.87 µg/mL (≈ 1.88 µM)	Cc1c(CN(C)CCOC(=O)CCC(=O)O)oc2c1C(=O)C(=O)c1c-2ccc2c(C)cccc12 [BS-TA-73]	IC50 [8]: 1.38 µg/mL (≈ 2.98 µM); IC90 [8]: 3.7 µg/mL (≈ 7.98 µM); IC50 [9]: 0.84 µg/mL (≈ 1.81 µM); IC90 [9]: 4.9 µg/mL (≈ 10.6 µM); IC50 [10]: 1.14 µg/mL (≈ 2.46 µM); IC90 [10]: 1.86 µg/mL (≈ 4.01 µM); IC50 [11]: 1.39 µg/mL (≈ 3 µM); IC90 [11]: 4.64 µg/mL (≈ 10 µM); IC50 [12]: 1.06 µg/mL (≈ 2.29 µM); IC90 [12]: 1.91 µg/mL (≈ 4.12 µM); IC50 [13]: 0.27 µg/mL (≈ 0.583 µM); IC90 [13]: 0.73 µg/mL (≈ 1.58 µM); IC50 [14]: 0.19 µg/mL (≈ 0.41 µM); IC90 [14]: 0.97 µg/mL (≈ 2.09 µM); IC50 [15]: 0.98 µg/mL (≈ 2.11 µM); IC90 [15]: 3.4 µg/mL (≈ 7.34 µM); IC50 [16]: 0.21 µg/mL (≈ 0.453 µM); IC90 [16]: 0.68 µg/mL (≈ 1.47 µM); IC50 [17]: 1.38 µg/mL (≈ 2.98 µM); IC90 [17]: 2.74 µg/mL (≈ 5.91 µM)

— patent publication US9328083B2, “2-aminated methylene or 2-esterified methylene tanshinone derivatives, and preparation method and application thereof” (HANGZHOU BENSHENG PHARMACEUTICAL CO., LTD., priority 2011, dated 2016)
